According to patent publication US20220235011A1, “PHTHALAZINONE COMPOUNDS AND USE THEREOF” (ST PHARM CO., LTD., priority 2019, published 2022):

Molecular target: T1, Sirt6 (Homo sapiens, UniProt Q8N6T7)
T1 construct: purchased CycLex CY-1156V2
Assay: Measurement of Sirt6 Activity (CycLex Sirt6 Deacetylase Fluorometric Assay Kit)
Format: biochemical
Conditions: compound at 10 μM; fluorescence relative to the group without compound treatment (positive control group)
Experimental: LC-MS (ESI, m/z)=430.1 (M+H^+) Experimental Example 1: Measurement of Sirt6 Activity Compounds having Sirt6 activity were selected using a CycLex Sirt6 Deacetylase Fluorometric Assay Kit (cat. CY-1156V2) manufactured by CycLex.
When a fluorescent-attached acetylated lysine substrate is treated with Sirt6 enzyme, Sirt6 deacetylates the acetylated lysine of the substrate and lysylendopeptidase cleaves the C-terminal peptide bond connected to the lysine, by which fluorescence is emitted. The activity of a compound is calculated by observing the intensity of fluorescence when the compound is treated along with Sirt6 enzyme. When treating the compound, the compound aids in the activity of Sirt6 enzyme, so as to result in stronger fluorescence. Therefore, by calculating the ratio of the stronger fluorescence relative to the fluorescence emitted from the group without compound treatment (i.e., positive control group), relative activity can be calculated.
Activity evaluation was performed according to the following procedure.
The compound whose activity is to be evaluated was prepared by diluting in phosphate-buffered saline (PBS) to 10 times of the desired concentration (e.g., when measuring Sirt6 assay activity at 10 μM, the compound is prepared at a concentration of 100 μM in PBS). 1 μL of a 1 Ox Sirt6 assay buffer, 0.8 μL of 50× fluoro-substrate peptide, 1 μL of nicotinamide adenine dinucleotide (NAD), 1 μL of a developer and 4.2 μL of H2O were mixed to prepare mixtures equal to the number of samples, and 8 μL was dispensed into each Black 384 well. An additional 1 μL of PBS was added to each of a “no enzyme group” and a positive control group, and 1 μL of the compound diluted in PBS was added to an activity evaluation group. Recombinant Sirt6 was 1:8 diluted in a 1×Sirt6 assay buffer, and 1 μL thereof was added to each of the positive control group and the activity evaluation group. 1 μL of the 1×Sirt6 assay buffer was added to the “no enzyme group.” After reacting at room temperature for one hour, results were measured with a fluorescence spectrometer (excitation: 490±10 nm, emission: 530±10 nm) to confirm the presence or absence of Sirt6 activity and measure the intensity of the activity.

T1 sequence (Q8N6T7 whole entry): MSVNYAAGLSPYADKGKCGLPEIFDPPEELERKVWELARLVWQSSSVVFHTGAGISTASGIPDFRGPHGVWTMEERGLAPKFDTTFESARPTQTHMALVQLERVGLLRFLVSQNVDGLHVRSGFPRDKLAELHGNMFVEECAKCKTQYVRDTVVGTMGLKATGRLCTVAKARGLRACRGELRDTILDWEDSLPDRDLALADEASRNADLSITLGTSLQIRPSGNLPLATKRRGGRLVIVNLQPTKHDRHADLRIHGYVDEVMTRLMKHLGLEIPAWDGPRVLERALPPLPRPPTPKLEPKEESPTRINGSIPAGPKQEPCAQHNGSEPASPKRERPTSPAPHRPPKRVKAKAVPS

Row | SMILES | Sirt6 Activity (% activity, 10 μM)
1 | O=c1c2ccccc2c(-c2cc(/C=[N+](\[O-])Cc3ccccc3)ccc2F)nn1-c1ccc(F)cc1 [Example 58, (Z)—N-Benzyl-1-(4-fluoro-3-(3-(4-fluorophenyl)-4-oxo-3,4-dihydrophthalazin-1-yl)phenyl) Methanimine Oxide] | 131 % activity
2 | O=c1c2ccccc2c(-c2ccc(Cl)c([N+](=O)[O-])c2)nn1-c1ccc(F)cc1 [Example 59, 4-(4-Chloro-3-nitrophenyl)-2-(4-fluorophenyl)phthalazin-1(2H)-one] | 109 % activity
3 | Nc1cccc(-c2nn(-c3ccc(F)cc3)c(=O)c3ccccc23)c1 [Example 60, 4-(3-Aminophenyl)-2-(4-fluorophenyl) phthalazin-1(2H)-one] | 176 % activity
4 | CCS(=O)(=O)Nc1cccc(-c2nn(Cc3ccccc3)c(=O)c3ccccc23)c1 [Example 61, N-(3-(3-Benzyl-4-oxo-3,4-dihydrophthalazin-1-yl)phenyl)ethanesulfonamide] | 104 % activity
5 | CCS(=O)(=O)Nc1cccc(-c2nn(CCc3ccccc3)c(=O)c3ccccc23)c1 [Example 62, N-(3-(4-Oxo-3-phenethyl-3,4-dihydrophthalazin-1-yl)phenyl)ethanesulfonamide] | 111 % activity
6 | CCS(=O)(=O)Nc1cccc(-c2nn(Cc3ccc(F)cc3)c(=O)c3ccccc23)c1 [Example 63, N-(3-(3-(4-Fluorobenzyl)-4-oxo-3,4-dihydrophthalazin-1-yl)phenyl)ethanesulfonamide] | 103 % activity
7 | CCS(=O)(=O)Nc1cccc(-c2nn(-c3ccc(-c4ccccc4)cc3)c(=O)c3ccccc23)c1 [Example 64, N-(3-(3-([1,1′-Biphenyl]-4-yl)-4-oxo-3,4-dihydrophthalazin-1-yl)phenyl)ethane Sulfonamide] | 106 % activity
8 | CCS(=O)(=O)N(C)c1cccc(-c2nn(-c3ccc(-c4ccccc4)cc3)c(=O)c3ccccc23)c1 [Example 65, N-(3-(3-([1,1′-Biphenyl]-4-yl)-4-oxo-3,4-dihydrophthalazin-1-yl)phenyl)-N-methylethanesulfonamide] | 96 % activity
9 | COC(=O)c1cccc(-c2nn(-c3ccc(F)cc3)c(=O)c3ccccc23)c1 [Example 66, Methyl 3-(3-(4-fluorophenyl)-4-oxo-3,4-dihydrophthalazin-1-yl)benzoate] | 103 % activity
10 | CC(C)S(=O)(=O)Nc1cccc(-c2nn(-c3ccc(F)cc3)c(=O)c3ccccc23)c1 [Example 67, N-(3-(3-(4-Fluorophenyl)-4-oxo-3,4-dihydrophthalazin-1-yl)phenyl)propan-2-sulfonamide] | 166 % activity
11 | CCCS(=O)(=O)Nc1cccc(-c2nn(-c3ccc(F)cc3)c(=O)c3ccccc23)c1 [Example 68, N-(3-(3-(4-Fluorophenyl)-4-oxo-3,4-dihydrophthalazin-1-yl)phenyl)propan-1-sulfonamide] | 160 % activity
12 | CN(c1cccc(-c2nn(-c3ccc(F)cc3)c(=O)c3ccccc23)c1)S(C)(=O)=O [Example 69, N-(3-(3-(4-Fluorophenyl)-4-oxo-3,4-dihydrophthalazin-1-yl)phenyl)-N-methylmethane Sulfonamide] | 209 % activity
13 | CCS(=O)(=O)N(C)c1cccc(-c2nn(-c3ccc(F)cc3)c(=O)c3ccccc23)c1 [Example 70, N-(3-(3-(4-Fluorophenyl)-4-oxo-3,4-dihydrophthalazin-1-yl)phenyl)-N-methylethane Sulfonamide] | 135 % activity
14 | O=c1c2ccccc2c(-c2cccc(NS(=O)(=O)C3CC3)c2)nn1-c1ccc(F)cc1 [Example 71, N-(3-(3-(4-Fluorophenyl)-4-oxo-3,4-dihydrophthalazin-1-yl)phenyl)cyclopropane Sulfonamide] | 150 % activity
15 | CCCS(=O)(=O)N(C)c1cccc(-c2nn(-c3ccc(F)cc3)c(=O)c3ccccc23)c1 [Example 72, N-(3-(3-(4-Fluorophenyl)-4-oxo-3,4-dihydrophthalazin-1-yl)phenyl)-N-methylpropan-1-sulfonamide] | 115 % activity
16 | CC(C)S(=O)(=O)N(C)c1cccc(-c2nn(-c3ccc(F)cc3)c(=O)c3ccccc23)c1 [Example 73, N-(3-(3-(4-Fluorophenyl)-4-oxo-3,4-dihydrophthalazin-1-yl)phenyl)-N-methylpropan-2-sulfonamide] | 124 % activity
17 | CN(c1cccc(-c2nn(-c3ccc(F)cc3)c(=O)c3ccccc23)c1)S(=O)(=O)C1CC1 [Example 74, N-(3-(3-(4-Fluorophenyl)-4-oxo-3,4-dihydrophthalazin-1-yl)phenyl)-N-methylcyclopropane Sulfonamide] | 128 % activity
18 | CN(C)S(=O)(=O)N(C)c1cccc(-c2nn(-c3ccc(F)cc3)c(=O)c3ccccc23)c1 [Example 75, N-(3-(3-(4-Fluorophenyl)-4-oxo-3,4-dihydrophthalazin-1-yl)phenyl)-N-methyl-dimethyl Sulfamoylamide] | 139 % activity
19 | COC(=O)N(C)S(=O)(=O)N(C)c1cccc(-c2nn(-c3ccc(F)cc3)c(=O)c3ccccc23)c1 [Example 76, Methyl (N-(3-(3-(4-fluorophenyl)-4-oxo-3,4-dihydrophthalazin-1-yl)phenyl)-N-methylsulfamoyl) (methyl)carbamate] | 125 % activity
20 | O=c1c2ccccc2c(-c2cccc(NS(=O)(=O)C(F)(F)F)c2)nn1-c1ccc(F)cc1 [Example 77, 1,1,1-Trifluoro-N-(3-(3-(4-fluorophenyl)-4-oxo-3,4-dihydrophthalazin-1-yl)phenyl)methanesulfonamide] | 194 % activity
21 | CN(c1cccc(-c2nn(-c3ccc(F)cc3)c(=O)c3ccccc23)c1)S(=O)(=O)C(F)(F)F [Example 78, 1,1,1-Trifluoro-N-(3-(3-(4-fluorophenyl)-4-oxo-3,4-dihydrophthalazin-1-yl)phenyl)-N-methylmethane Sulfonamide] | 122 % activity
22 | O=C(NOC1CCCCO1)c1cccc(-c2nn(-c3ccc(F)cc3)c(=O)c3ccccc23)c1 (stereo not drawn) [Example 79, 3-(3-(4-Fluorophenyl)-4-oxo-3,4-dihydrophthalazin-1-yl)-N-((tetrahydro-2H-pyran-2-yl)oxy)benzamide] | 167 % activity
23 | CNS(=O)(=O)N(C)c1cccc(-c2nn(-c3ccc(F)cc3)c(=O)c3ccccc23)c1 [Example 80, N-(3-(3-(4-Fluorophenyl)-4-oxo-3,4-dihydrophthalazin-1-yl)phenyl)-N-methyl-methyl Sulfamoylamide] | 216 % activity
24 | O=c1c2ccccc2c(-c2cccc(-c3nnn[nH]3)c2)nn1-c1ccc(F)cc1 [Example 81, 4-(3-(1H-Tetrazol-5-yl)phenyl)-2-(4-fluorophenyl)phthalazin-1(2H)-one] | 115 % activity
25 | CCS(=O)(=O)Nc1cncc(-c2nn(-c3ccc(F)cc3)c(=O)c3ccccc23)c1 [Example 82, N-(5-(3-(4-Fluorophenyl)-4-oxo-3,4-dihydrophthalazin-1-yl)pyridin-3-yl)ethanesulfonamide] | 111 % activity
26 | O=C(NO)c1cccc(-c2nn(-c3ccc(F)cc3)c(=O)c3ccccc23)c1 [Example 83, 3-(3-(4-Fluorophenyl)-4-oxo-3,4-dihydrophthalazin-1-yl)-N-hydroxybenzamide] | 162 % activity
27 | C/[N+]([O-])=C/c1cccc(-c2nn(-c3ccc(-c4ccccc4)cc3)c(=O)c3ccccc23)c1 [Example 84, (Z)-1-(3-(3-([1,1′-Biphenyl]-4-yl)-4-oxo-3,4-dihydrophthalazin-1-yl)phenyl)-N-methylmethanimine Oxide] | 123 % activity
28 | CC(C)/[N+]([O-])=C/c1cccc(-c2nn(-c3ccc(-c4ccccc4)cc3)c(=O)c3ccccc23)c1 [Example 85, (Z)-1-(3-(3-([1,1′-Biphenyl]-4-yl)-4-oxo-3,4-dihydrophthalazin-1-yl)phenyl)-N-isopropylmethanimine Oxide] | 118 % activity
29 | CNS(=O)(=O)c1cccc(-c2nn(-c3ccc(F)cc3)c(=O)c3ccccc23)c1 [Example 86, 3-(3-(4-Fluorophenyl)-4-oxo-3,4-dihydrophthalazin-1-yl)-N-methylbenzenesulfonamide] | 196 % activity
30 | CCNS(=O)(=O)c1cccc(-c2nn(-c3ccc(F)cc3)c(=O)c3ccccc23)c1 [Example 87, N-Ethyl-3-(3-(4-fluorophenyl)-4-oxo-3,4-dihydrophthalazin-1-yl)benzenesulfonamide] | 226 % activity
